# Assay results taken from US20120129811A1, “TRICYCLIC INHIBITORS OF PRO-MATRIX METALLOPROTEINASE ACTIVATION” (priority 2010, published 2012).
# Counter-ions that a name gives are not always drawn.
# What was measured:
# [1] = biological target: T1, proMMP9(20-445;ΔFnII) (SEQ ID NO:6) (Homo sapiens, UniProt P14780, DEL216-390); test: ThermoFluor binding assay with proMMP9(20-445;ΔFnII)
# T1 construct: start methionine (N); made in house; host or cells: E. coli BL21(DE3) RIL
# T1 sequence (P14780 with tags, fused parts or gaps DEL216-390): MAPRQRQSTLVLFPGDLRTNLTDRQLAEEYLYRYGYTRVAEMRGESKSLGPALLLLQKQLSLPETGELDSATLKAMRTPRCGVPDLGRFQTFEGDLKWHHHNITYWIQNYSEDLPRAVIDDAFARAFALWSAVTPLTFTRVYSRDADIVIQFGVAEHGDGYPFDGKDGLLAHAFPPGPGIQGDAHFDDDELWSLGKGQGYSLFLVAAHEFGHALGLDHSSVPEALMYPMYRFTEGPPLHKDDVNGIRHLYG
# Summary of the method: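 Protein thermal stability was measured with 2.8 μM proMMP9(20-445;ΔFnII) and 50 μM 1,8-ANS in 50 mM HEPES pH 7.0, 100 mM NaCl, 0.001% Tween-20, 2.5 mM MgCl2, 300 μM CaCl2, across serial compound dilutions. Samples were heated 40–90° C at 1° C/min with fluorescence read at 500 nm. Tm was fitted, and binding was derived from thermodynamic parameters obtained by DSC and ThermoFluor.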
# [2] = biological target: T2, proMMP9(67-444;ΔFnII) (SEQ ID NO:5) (Homo sapiens, UniProt P14780, DEL216-390); test: ThermoFluor binding assay with proMMP9(67-444;ΔFnII)
# T2 construct: start methionine (N); made in house; host or cells: E. coli BL21(DE3) RIL
# T2 sequence (P14780 with tags, fused parts or gaps DEL216-390): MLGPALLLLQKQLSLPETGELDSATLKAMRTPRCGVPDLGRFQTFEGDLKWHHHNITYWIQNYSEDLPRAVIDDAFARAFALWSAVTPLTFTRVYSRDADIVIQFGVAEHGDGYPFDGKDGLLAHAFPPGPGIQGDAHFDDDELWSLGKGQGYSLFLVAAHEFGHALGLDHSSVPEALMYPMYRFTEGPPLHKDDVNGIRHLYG
# Summary of the method: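 Thermal shift of 3.5 μM proMMP9(67-444;ΔFnII), desalted beforehand, with 50 μM 1,8-ANS in 50 mM HEPES pH 7.0, 100 mM NaCl, 2.5 mM MgCl2, 300 μM CaCl2, 0.001% Tween-20. Heated 40–90 °C at 1 °C/min, fluorescence read at 500 nm; binding fitted from Tm shifts using DSC- and ThermoFluor-derived unfolding parameters.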
# [3] = biological target: T3, proMMP13(1-268) (SEQ ID NO:7) (Homo sapiens, UniProt P45452); test: ThermoFluor binding assay with proMMP13(1-268)
# T3 construct: 6xHis (C); made in house; host or cells: HEK293 (transient, secreted)
# Method: The ThermoFluor® (TF) assay is a 384-well plate-based binding assay that measures thermal stability of proteins (Biomol Screen 2001, 6, 429-40; Biochemistry 2005, 44, 5258-66). The experiments were carried out using instruments available from Johnson & Johnson Pharmaceutical Research & Development, LLC. TF dye used in all experiments was […] (1,8-ANS) (Invitrogen: A-47).
# Compounds were arranged in a pre-dispensed plate (Greiner Bio-one: 781280), wherein compounds were serially diluted in 100% DMSO across 11 columns within a series. Columns 12 and 24 were used as DMSO reference and contained no compound. For multiple compound concentration-response experiments, the compound aliquots (50 nL) were robotically predispensed directly into black 384-well polypropylene PCR microplates (Abgene: TF-0384/k) using a Cartesian Hummingbird liquid handler (DigiLab, Holliston, Mass.). Following compound dispense, protein and dye solutions were added to achieve the final assay volume of 3 μL. The assay solutions were overlayed with 1 μL of silicone oil (Fluka, type DC 200: 85411) to prevent evaporation.
# Assay plates were robotically loaded onto a thermostatically controlled PCR-type thermal block and then heated from 40 to 90° C. at a ramp-rate of 1° C./min for all experiments. Fluorescence was measured by continuous illumination with UV light (Hamamatsu LC6) supplied via fiber optics and filtered through a band-pass filter (380-400 nm; >60D cutoff). Fluorescence emission of the entire 384-well plate was detected by measuring light intensity using a CCD camera (Sensys, Roper Scientific) filtered to detect 500±25 nm, resulting in simultaneous and independent readings of all 384 wells. A single image with 20-sec exposure time was collected at each temperature, and the sum of the pixel intensity in a given area of the assay plate was recorded vs temperature and fit to standard equations to yield the Tm (J Biomol Screen 2001, 6, 429-40).
# Thermodynamic parameters necessary for fitting compound binding for each proMMP were estimated by differential scanning calorimetry (DSC) and from ThermoFluor® data. The heat capacity of unfolding for each protein was estimated from the molecular weight and from ThermoFluor® dosing data.
# ThermoFluor® with proMMP13(1-268) (SEQ ID NO: 7)
# The proMMP13(1-268) (SEQ ID NO:7) protein sample preparations included a desalting buffer exchange step via a PD-10 gravity column (GE Healthcare). The desalting buffer exchange was performed prior to diluting the protein to the final assay concentration of 3.5 μM. The concentration of proMMP13(1-268) (SEQ ID NO:7) was estimated spectrophotometrically based on a calculated extinction coefficient of ε280=37000 M^−1 cm^−1, a calculated molecular weight of 30.8 kDa, and calculated pI of 5.33. ThermoFluor® reference conditions were defined as follows: 100 μg/mL proMMP13(1-268) (SEQ ID NO:7), 25 μM 1,8-ANS, pH 7.0 Buffer (50 mM HEPES pH 7.0, 100 mM NaCl, 0.001% Tween-20, 2.5 mM MgCl2, 300 μM CaCl2). The thermodynamic parameters for proMMP13(1-268) (SEQ ID NO:7) are as follows: Tm (° C.)=67 (+/−0.1), ΔUH(Tm)) (cal mol^−1)=107000(+/−5000), ΔUSTm (cal mol^−1 K^−1)=318, ΔUCp (cal mol^−1 K^−1)=2600.
# [4] = biological target: T4, full-length proMMP9(1-707) activation by catalytic MMP3 (Homo sapiens, UniProt P14780, R574P); test: proMMP9/MMP3 P126 Activation Assay; format: biochemical
# T4 construct: made in house; host or cells: proMMP9: HEK293 (secreted); MMP3: E. coli
# Method: proMMP9/MMP3 P126 Activation Assay
# The reaction volume was 50 μL. […] Reactivity of residual MMP3 towards P-126 substrate was minimal under these conditions.
# T4 sequence (P14780 20-707 R574P): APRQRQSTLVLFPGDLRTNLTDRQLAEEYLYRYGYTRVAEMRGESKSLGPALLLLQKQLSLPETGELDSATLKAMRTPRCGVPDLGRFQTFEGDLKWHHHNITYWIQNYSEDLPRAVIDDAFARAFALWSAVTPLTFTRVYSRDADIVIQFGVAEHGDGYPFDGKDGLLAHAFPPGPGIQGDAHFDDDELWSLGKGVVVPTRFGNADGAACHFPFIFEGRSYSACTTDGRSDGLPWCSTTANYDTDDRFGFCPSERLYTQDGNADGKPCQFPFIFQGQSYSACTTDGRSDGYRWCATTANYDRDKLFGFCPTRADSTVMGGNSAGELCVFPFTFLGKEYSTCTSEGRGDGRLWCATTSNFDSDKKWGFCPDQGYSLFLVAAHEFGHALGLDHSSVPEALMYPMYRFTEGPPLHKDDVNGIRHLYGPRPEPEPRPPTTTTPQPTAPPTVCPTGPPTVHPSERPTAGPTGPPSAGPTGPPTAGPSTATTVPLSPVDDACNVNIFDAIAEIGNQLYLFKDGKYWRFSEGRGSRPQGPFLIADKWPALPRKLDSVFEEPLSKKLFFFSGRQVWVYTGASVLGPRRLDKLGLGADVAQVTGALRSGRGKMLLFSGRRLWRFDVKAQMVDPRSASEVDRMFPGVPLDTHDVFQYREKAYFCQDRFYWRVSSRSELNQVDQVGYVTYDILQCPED
SMILES,Kd [1],Kd [2],Kd [3],IC50 [4]
"COc1ccc(S(=O)(=O)N(C)C)cc1Nc1nc2c(ccc3c2ncn3C)s1 [Example 55, 4-Methoxy-N,N-dimethyl-3-(6-methyl-6H-imidazo[4′,5′:3,4]benzo[2,1-d]thiazol-2-ylamino)-benzenesulfonamide.HCl]",6700 nM,2200 nM,2100 nM,530 nM
"CCS(=O)(=O)c1ccc(OC)c(Nc2nc3c(ccc4c3ncn4C)s2)c1 [Example 60, (5-Ethanesulfonyl-2-methoxy-phenyl)-(6-methyl-6H-imidazo[4′,5′:3,4]-benzo[2,1-d]thiazol-2-yl)-amine.HCl]",2800 nM,970 nM,1500 nM,340 nM
"COC(=O)c1ccc(OC)c(Nc2nc3c(ccc4c3ncn4C)s2)c1 [Example 61, 4-Methoxy-3-(6-methyl-6H-imidazo[4′,5′:3,4]benzo[2,1-d]thiazol-2-ylamino)-benzoic acid methyl ester.HCl]",3200 nM,860 nM,2100 nM,650 nM
"CCc1ccccc1Nc1nc2c(ccc3c2ncn3C)s1 [Example 62, (2-Ethyl-phenyl)-(6-methyl-6H-imidazo[4′,5′:3,4]benzo[2,1-d]thiazol-2-yl)-amine.HCl]",3900 nM,1600 nM,51000 nM,1100 nM
"CC(C)Oc1ccc(C(N)=O)cc1Nc1nc2c(s1)CCc1cnccc1-2 [Example 115, 3-(4,5-Dihydro-thiazolo[4,5-f]isoquinolin-2-ylamino)-4-isopropoxy-benzamide.TFA]",3000 nM,25000 nM,14000 nM,1600 nM

# Stronger by Kd [1], values ahead:
Kd [1],Kd [2],Kd [3],IC50 [4],SMILES
1400 nM,600 nM,2200 nM,160 nM,"COc1ccc(S(C)(=O)=O)cc1Nc1nc2c(ccc3c2ncn3C)s1 [Example 52, (5-Methanesulfonyl-2-methoxy-phenyl)-(6-methyl-6H-imidazo[4′,5′:3,4]benzo[2,1-d]thiazol-2-yl)-amine.HCl]"
1600 nM,1100 nM,11000 nM,240 nM,"COc1ccc(S(N)(=O)=O)cc1Nc1nc2c(ccc3c2ncn3C)s1 [Example 54, 4-Methoxy-3-(6-methyl-6H-imidazo[4′,5′:3,4]benzo[2,1-d]thiazol-2-ylamino)-benzenesulfonamide.HCl]"
1000 nM,3300 nM,9800 nM,1100 nM,"COc1cc(C)c(C(N)=O)cc1Nc1nc2c(ccc3c2ncn3C)s1 [Example 56, 4-Methoxy-2-methyl-5-(6-methyl-6H-imidazo[4′,5′:3,4]benzo[2,1-d]thiazol-2-ylamino)-benzamide.HCl]"
2600 nM,930 nM,21000 nM,380 nM,"Cn1cnc2c3nc(Nc4ccccc4OC(F)(F)F)sc3ccc21 [Example 58, (6-Methyl-6H-imidazo[4′,5′:3,4]-benzo[2,1-d]thiazol-2-yl)-(2-trifluoromethoxy-phenyl)-amine.HCl]"
2000 nM,680 nM,3200 nM,450 nM,"CC(C)Oc1ccc(F)cc1Nc1nc2c(ccc3c2ncn3C)s1 [Example 59, (5-Fluoro-2-isopropoxy-phenyl)-(6-methyl-6H-imidazo[4′,5′:3,4]-benzo[2,1-d]thiazol-2-yl)-amine.HCl]"
1200 nM,450 nM,2300 nM,690 nM,"COc1c(F)cc(F)cc1Nc1nc2c(ccc3c2ncn3C)s1 [Example 63, (3,5-Difluoro-2-methoxy-phenyl)-(6-methyl-6H-imidazo[4′,5′:3,4]benzo[2,1-d]thiazol-2-yl)-amine.HCl]"
950 nM,2900 nM,9000 nM,1300 nM,"CC(C)Oc1ccc(C(N)=O)cc1Nc1nc2c(ccc3ncccc32)s1 [Example 91, 4-Isopropoxy-3-(thiazolo[4,5-f]quinolin-2-ylamino)-benzamide.TFA]"
